These results are taken from the RepoRT retention time repository.

This data set can be described thus: HILIC, Waters ACQUITY UPLC BEH Amide, 100 × 2.1 mm, 1.7 µm; A: water + 0.125% formic acid + 10 mM ammonium formate; B: 5% water + 95% acetonitrile + 0.125% formic acid + 10 mM ammonium formate; gradient (min/%B) 0/100 2/100 7.7/70 9.5/40 10.25/30 12.75/100 17/100. To be noted: stereoisomer not certain.
`COc1ccccc1OCC(O)CN1CCN(CC(=O)Nc2c(C)cccc2C)CC1` (stereo not drawn) [Ranolazine]: the LC retention time was 2.79 min.

Consider `CC(Cc1ccccc1)(NC(=O)CN)c1ccccc1` (stereo not drawn) [Remacemide], for which the LC retention time is 4.41 min.

With `CCOc1cc(CC(=O)NC(CC(C)C)c2ccccc2N2CCCCC2)ccc1C(=O)O` (stereo not drawn) [Repaglinide], the LC retention time worked out at 1.01 min.

Take `Oc1ccc(C=Cc2cc(O)cc(O)c2)cc1` [Resveratrol]: the LC retention time came to 1.41 min.

Turning to `CC(C=CC1=C(C)CCCC1(C)C)=CC=CC(C)=CC(=O)O` [Retinoic acid], the LC retention time was 1.11 min.

In the case of `Cc1cc2nc3c(=O)[nH]c(=O)nc-3n(CC(O)C(O)C(O)CO)c2cc1C` (stereo not drawn) [Riboflavin], the LC retention time was 6 min.

With `COC1C=COC2(C)Oc3c(C)c(O)c4c(O)c(c5c(c4c3C2=O)=NC2(CCN(CC(C)C)CC2)N=5)NC(=O)C(C)=CC=CC(C)C(O)C(C)C(O)C(C)C(OC(C)=O)C1C` (stereo not drawn) [Rifabutin], the LC retention time was 2.76 min.

As for `COC1C=COC2(C)Oc3c(C)c(O)c4c(O)c(c(C=NN5CCN(C6CCCC6)CC5)c(O)c4c3C2=O)NC(=O)C(C)=CC=CC(C)C(O)C(C)C(O)C(C)C(OC(C)=O)C1C` (stereo not drawn) [Rifapentine], the LC retention time is 1.81 min.

For the compound `COC1C=COC2(C)Oc3c(C)c(O)c4c(O)c(c5c(nc6cc(C)ccn65)c4c3C2=O)NC(=O)C(C)=CC=CC(C)C(O)C(C)C(O)C(C)C(OC(C)=O)C1C` (stereo not drawn) [Rifaximin], the LC retention time came to 1.18 min.

On to `Nc1nc2ccc(OC(F)(F)F)cc2s1` [Riluzole], for which the LC retention time came to 1.03 min.

Turning to `CC1CN(CCCn2c3ccccc3c3ccccc32)CC(C)N1` (stereo not drawn) [Rimcazole], the LC retention time turned out to be 2.87 min.

As to `Cc1nc2n(c(=O)c1CCN1CCC(c3noc4cc(F)ccc34)CC1)CCCC2` [Risperidone], the LC retention time is 3.52 min.

Consider `CC(C)c1nc(CN(C)C(=O)NC(C(=O)NC(Cc2ccccc2)CC(O)C(Cc2ccccc2)NC(=O)OCc2cncs2)C(C)C)cs1` (stereo not drawn) [Ritonavir], for which the LC retention time is 1.15 min.

On to `CN(C)CCc1c[nH]c2ccc(Cn3cncn3)cc12` [Rizatriptan], for which the LC retention time worked out at 5.11 min.

Turning to `CS(=O)(=O)c1ccc(C2=C(c3ccccc3)C(=O)OC2)cc1` [Rofecoxib], the LC retention time was 0.97 min.

`COc1ccc(C2CNC(=O)C2)cc1OC1CCCC1` (stereo not drawn) [Rolipram]: the LC retention time turned out to be 1.12 min.

As to `CCCN1CCCCC1C(=O)Nc1c(C)cccc1C` (stereo not drawn) [Ropivacaine], the LC retention time was 2.49 min.

As to `CN(CCOc1ccc(CC2SC(=O)NC2=O)cc1)c1ccccn1` (stereo not drawn) [Rosigltazone], the LC retention time was 1.24 min.

On to `CC(=O)OCC(=O)NCCCOc1cccc(CN2CCCCC2)c1` [Roxane], for which the LC retention time was 3.01 min.

With `CN1CCN(c2c(F)cc3c(=O)c(C(=O)O)cn4c3c2SCC4)CC1` [Rufloxacin], the LC retention time was 4.65 min.

Consider `CC1OC(OCC2OC(Oc3c(-c4ccc(O)c(O)c4)oc4cc(O)cc(O)c4c3=O)C(O)C(O)C2O)C(O)C(O)C1O` (stereo not drawn) [Rutin], for which the LC retention time was 6.6 min.

Regarding `Nc1ncnc2c1ncn2C1OC(CSCCC(N)C(=O)O)C(O)C1O` (stereo not drawn) [S-Adenosyl-homocysteine], the LC retention time was 8.85 min.

Turning to `C[S+](CCC(N)C(=O)[O-])CC1OC(n2cnc3c(N)ncnc32)C(O)C1O` (stereo not drawn) [S-Adenosyl-methionine], the LC retention time came out at 9.7 min.

In the case of `CN=C(NC)NCCCC(N)C(=O)O` (stereo not drawn) [SDMA], the LC retention time turned out to be 8.49 min.

Regarding `OCc1ccccc1OC1OC(CO)C(O)C(O)C1O` (stereo not drawn) [Salicin], the LC retention time was determined as 4.48 min.

Turning to `OCc1cc(C(O)CNCCCCCCOCCCCc2ccccc2)ccc1O` (stereo not drawn) [Salmeterol], the LC retention time amounted to 4.75 min.

For `CC(C)(C)NC(=O)C1CC2CCCCC2CN1CC(O)C(Cc1ccccc1)NC(=O)C(CC(N)=O)NC(=O)c1ccc2ccccc2n1` (stereo not drawn) [Saquinavir], the LC retention time is 2.85 min.

Turning to `CNCC(=O)O` [Sarcosine], the LC retention time came out at 7.82 min.

`CN1C2CC(OC(=O)C(CO)c3ccccc3)CC1C1OC12` (stereo not drawn) [Scopolamine]: the LC retention time was determined as 3.75 min.

As to `COc1cc2ccc(=O)oc2cc1O` [Scopoletin], the LC retention time came out at 1.16 min.

Regarding `Cc1ncc([N+](=O)[O-])n1CC(C)O` (stereo not drawn) [Secnidazole], the LC retention time stood at 1.12 min.

With `C#CCN(C)C(C)Cc1ccccc1` (stereo not drawn) [Selegiline], the LC retention time came to 1.5 min.

Take `NC(CO)C(=O)NC(CCC(=O)O)C(=O)O` (stereo not drawn) [Ser-Glu]: the LC retention time came out at 9.65 min.

`NC(CO)C(=O)NC(Cc1ccc(O)cc1)C(=O)O` (stereo not drawn) [Ser-Tyr]: the LC retention time stood at 8.44 min.

For the compound `NC(CO)C(=O)O` (stereo not drawn) [Serine], the LC retention time was 8.73 min.

Take `NCCc1c[nH]c2ccc(O)cc12` [Serotonin]: the LC retention time came out at 1.44 min.

As to `CNC1CCC(c2ccc(Cl)c(Cl)c2)c2ccccc21` (stereo not drawn) [Sertraline], the LC retention time is 2.74 min.

`CC(C)CC(N(C)C)C1(c2ccc(Cl)cc2)CCC1` (stereo not drawn) [Sibutramine]: the LC retention time amounted to 1.86 min.

As to `COc1cc(C=CC(=O)O)cc(OC)c1O` [Sinapic acid], the LC retention time amounted to 1.41 min.

In the case of `O=P(O)(O)OCC(O)C(O)C(O)C(O)CO` (stereo not drawn) [Sorbitol-6-phosphate], the LC retention time came to 9.75 min.

`CC(C)NCC(O)c1ccc(NS(C)(=O)=O)cc1` (stereo not drawn) [Sotalol]: the LC retention time came to 4.87 min.

With `NCCCCNCCCN` [Spermidine], the LC retention time was determined as 6.98 min.

In the case of `NCCCNCCCCNCCCN` [Spermine], the LC retention time turned out to be 7.24 min.

Consider `C[N+]1(C)CCCC1C(=O)O` (stereo not drawn) [Stachydrine], for which the LC retention time stood at 7.1 min.

In the case of `CC12Cc3cn[nH]c3CC1CCC1C2CCC2(C)C1CCC2(C)O` (stereo not drawn) [Stanozolol], the LC retention time was determined as 1.19 min.

Take `Cc1cn(C2C=CC(CO)O2)c(=O)[nH]c1=O` (stereo not drawn) [Stavudine]: the LC retention time worked out at 1.62 min.

As to `CCCCCCCCCCCCCCCCCC(=O)OC(CC(=O)O)C[N+](C)(C)C` [Stearoyl-L-carnitine], the LC retention time worked out at 2.96 min.

`C=Cc1ccccc1` [Styrene]: the LC retention time was 8.74 min.

Regarding `O=C(O)CCC(=O)O` [Succinic acid], the LC retention time is 4.46 min.

On to `OCC1OC(OC2(CO)OC(CO)C(O)C2O)C(O)C(O)C1O` (stereo not drawn) [Sucrose], for which the LC retention time came out at 8.05 min.

In the case of `O=C(O)c1cc(N=Nc2ccc(S(=O)(=O)Nc3ccccn3)cc2)ccc1O` [Sulfasalazine], the LC retention time was 2.01 min.

As for `CS(=O)CCCCN=C=S` (stereo not drawn) [Sulforaphane], the LC retention time came to 1.14 min.

For `CNS(=O)(=O)Cc1ccc2[nH]cc(CCN(C)C)c2c1` [Sumatriptan], the LC retention time worked out at 4.31 min.

On to `CNCC(O)c1ccc(O)cc1` (stereo not drawn) [Synephrine], for which the LC retention time came to 5.67 min.

Consider `COc1cc(-c2oc3cc(O)cc(O)c3c(=O)c2OC2OC(CO)C(O)C(O)C2O)cc(OC)c1O` (stereo not drawn) [Syringetin-3-O-glucoside], for which the LC retention time turned out to be 4.32 min.

In the case of `COc1cc(C(=O)O)cc(OC)c1O` [Syringic acid], the LC retention time worked out at 1.35 min.

Turning to `O=S(=O)(O)CCNC(CO)(CO)CO` [TES], the LC retention time is 7.7 min.

In the case of `Nc1c2c(nc3ccccc13)CCCC2` [Tacrine], the LC retention time was found to be 3.86 min.
